Read-outs that look alike come from different tables or passages of the source.
How the values were obtained:
[1] = system: murine triple negative breast cancer cell line 4T1; test: crystal violet assay, cellular viability; assay type: cell-based; conditions: Mus musculus, 4T1, 48 hours
Procedure: (§1) Compound 1 and compound 2 were tested in their efficacy to kill malignant MCF7 cancer cells. Briefly, 10.000 cells per well were seeded in a 96-well plat on one day and the next day selected compounds were added and incubated with the cells for 48 hrs. The cells were then fixed with 4% paraformaldehyde, stained with 0.05% crystal violet, washed with PBS, and solubilized in 1% SDS. The absorbance of the plate at 595 nm was then measured, quantifying the number of viable cells.
(§2) A number of compounds of the present invention were tested for cytotoxicity towards at least some of human breast cancer cell lines (MCF7, MDA-MB-231), human fibroblast (BJ) and murine triple negative breast cancer cell line 4T1 (Table 2).

[2] = system: non malignant cells (BJ), human fibroblast; test: crystal violet assay, cellular viability; assay type: cell-based
Procedure: as §1, §2

[3] = system: NIH:OVCAR-3 cells; test: crystal violet assay, cellular viability; assay type: cell-based; conditions: Homo sapiens, NIH:OVCAR-3, 48 hours
[4] = system: murine triple negative breast cancer cells line 4T1; test: tumor growth in vivo, 4T1 model; parameters: species or system Balb/c gamma mice; conditions: for Relative tumor size: 4T1, 8 mg/kg i.p. twice per week
Procedure: In order to define the effect of compound 2 on tumor growth and progression in vivo, we tested its effect on the model of syngeneic murine triple negative breast cancer cells line 4T1, Balb/c gamma mice being the […] host. Mice were injected with 1 million of cells s.c. on the right flank. After appearance of tumors (15-60 mm^3) mice were randomized into two separate group, one receiving corn oil (control) and one receiving compound 2 at 8 mg/kg. Tumor progression was then monitored by ultrasound imaging Vevo770 and mice received the treatment twice per week, i.p. in approximately 100 ul of corn oil.

[5] = system: T47D cells; test: crystal violet assay, cellular viability; assay type: cell-based; conditions: for IC50: Homo sapiens
[6] = system: tamoxifen-resistant BT474 (Tam5R); test: crystal violet assay, tamoxifen resistant cells; assay type: cell-based; conditions: Homo sapiens, BT-474, grown in 5 μM tamoxifen
Procedure: as §1
(§3) To test whether compound 2 is active against resistant cancer cells, we used tamoxifen-resistant MCF7, T47D and BT474 cell lines. The IC50 values were again measured with the crystal violet assay performed as in example 18. We have documented that there is no statistically significant difference in the ability of compound 2 to induce cytostatic and cytotoxic effects between the parental cells sensitive to tamoxifen and the resistant ones that grow even in the presence of tamoxifen (Table 4).

[7] = system: tamoxifen-resistant T47D (Tam5R); test: crystal violet assay, tamoxifen resistant cells; assay type: cell-based; conditions: Homo sapiens, grown in 5 μM tamoxifen
Procedure: as §1, §3

[8] = system: tamoxifen-resistant MCF7 (Tam5R); test: crystal violet assay, tamoxifen resistant cells; assay type: cell-based; conditions: Homo sapiens, grown in 5 μM tamoxifen
Procedure: as §1, §3

[9] = system: non malignant cells (BJ); test: cellular proliferation in real time, Xcelligence technology; assay type: cell-based, human
Procedure: The ability of compound 2 to affect the proliferation and cell death induction in real time was monitored by the Xcelligence technology that detects changes in electrical impedance related to the cell number. In brief, special 16-well e-plates containing gold electrodes were filled with medium, blank values were recorded, and then 5.000 cells per well were seeded in the plate and let to attach for 2 hours, followed by the addition of compounds. The electrical impedance was then monitored over time in real-time every 15 minutes. In this case a line is drawn that reflects the cell number over time. […] We have seen a clear inhibition of proliferation with compound 2 at 1 μM, complete block of proliferation at 2 μM concentration, while the cytotoxic effect is seen at 5 μM (Table 9).

[10] = system: MDA-MB-231 cells; test: AnnexinV/PI cell death assay; assay type: cell-based, human; conditions: 48 hrs
Procedure: To confirm such findings by an independent method, cell death-inducing potency (cytotoxic efficacy) of DFO and compound 2 have been tested via annexin V/PI staining commonly used as a measure of apoptotic/necrotic cell death. Briefly, cells were seeded in 12-well plate at 100,000 per well, incubated with the selected compounds for 48 hours, then floating cells were spun, adherent cells trypsinized and spun as well followed by the staining with AnnexinV-FITC and PI probes. Cells were then washed with PBS and measured via Fluorescence Activated Sorter.

[11] = system: BT474 cells; test: crystal violet assay, cellular viability; assay type: cell-based; conditions: for IC50: Homo sapiens, BT-474
[12] = system: MCF7 cells; test: cellular migration into scratch, JULI FL; assay type: cell-based, human
Procedure: (§4) In order to test the effect of compound 2 on cellular migration, we have seeded MCF7 or MDA-MB-231 cells in 12 well plates, let them reach confluence and then introduced a scratch in the monolayer with a 10 μl pipette tip.

[13] = system: MDA-MB-231 cells; test: cellular migration into scratch, JULI FL; assay type: cell-based, human
Procedure: as §4

CC(=O)N(O)CCCCCNC(=O)CCC(=O)N(O)CCCCCNC(=O)CCC(=O)N(O)CCCCCN(CCCCCCCCCC[P+](c1ccccc1)(c1ccccc1)c1ccccc1)CCCCCCCCCC[P+](c1ccccc1)(c1ccccc1)c1ccccc1.[Cl-].[Cl-] [Compound 2, Triphenyl(3,14,25-trihydroxy-2,10,13,21,24-pentaoxo-31-(10-(triphenylphosphonio)decyl)-3,9,14,20,25,31-hexaazahentetracontan-41-yl)phosphonium chloride]
IC50 [1]: 2 µM | Selectivity index (IC50 non-malignant/IC50 malignant) ([2]; BJ vs BJ (reference)): 1 | IC50 ([2]; Homo sapiens, Fibroblast, BJ non malignant, 48 hours, crystal violet): 14.3 µM | IC50 [3]: 3.7 µM | effect on relative tumor growth, in words ([4]; 4T1, 8 mg/kg): significantly reduces relative tumor growth | Relative tumor size ([4]; Day 0): 1.0 | Relative tumor size ([4]; Day 4): 1.3 | Relative tumor size ([4]; Day 7): 1.1 | Relative tumor size ([4]; Day 11): 1.4 | Relative tumor size ([4]; Day 14): 1.6 | Relative tumor size ([4]; Day 18): 2.5 | Selectivity index (IC50 non-malignant/IC50 malignant) ([5]; BJ vs T47D, 48 hours): 4.77 | IC50 ([5]; T47D Parental, read-out: IC50 crystal violet): 3 µM | IC50 ([5]; T47D, 48 hours, crystal violet, read-out: IC50 cellular viability): 3 µM | IC50 [6]: 4.2 µM | IC50 [7]: 1.2 µM | IC50 [8]: 2.1 µM | slope of the line (relative number of cells in relation to time) ([9]; 0-15 h, 1 μM): 1.14 | slope of the line (relative number of cells in relation to time) ([9]; 0-15 h, 2 μM): 1.07 | slope of the line (relative number of cells in relation to time) ([9]; 0-15 h, 5 μM): 0.83 | slope of the line (relative number of cells in relation to time) ([9]; 0-36 h, 1 μM): 1.08 | slope of the line (relative number of cells in relation to time) ([9]; 0-36 h, 2 μM): 0.90 | slope of the line (relative number of cells in relation to time) ([9]; 0-36 h, 5 μM): 0.47 | effect on cellular proliferation of non-malignant BJ cells, in words ([9]; Xcelligence, 5 μM): very mild and statistically non-significant effect | mean percentage of dead cells (AnnexinV/PI) ([10]; MDA-MB-231, 5 μM): 39.8% | mean percentage of dead cells (AnnexinV/PI) ([10]; MDA-MB-231, 10 μM): 78.5% | mean percentage of dead cells (AnnexinV/PI) ([10]; MDA-MB-231, 20 μM): 98.0% | Selectivity index (IC50 non-malignant/IC50 malignant) ([11]; BJ vs BT474, 48 hours): 4.33 | IC50 ([11]; BT474, 48 hours, crystal violet, read-out: IC50 cellular viability): 3.3 µM | IC50 ([11]; BT474 Parental, read-out: IC50 crystal violet): 3.3 µM | mean percentage of non-invaded portion of the scratch ([12]; MCF7, 0 h, 1 μM): 100 (4.1) % | mean percentage of non-invaded portion of the scratch ([12]; MCF7, 0 h, 2 μM): 100 (4.8) % | mean percentage of non-invaded portion of the scratch ([12]; MCF7, 0 h, 5 μM): 100 (4.4) % | mean percentage of non-invaded portion of the scratch ([12]; MCF7, 24 h, 1 μM): 78.8 (5.2) % | mean percentage of non-invaded portion of the scratch ([12]; MCF7, 24 h, 2 μM): 79.2 (1.1) % | mean percentage of non-invaded portion of the scratch ([12]; MCF7, 24 h, 5 μM): 83.8 (0.6) % | mean percentage of non-invaded portion of the scratch ([12]; MCF7, 48 h, 1 μM): 61.8 (5.3) % | mean percentage of non-invaded portion of the scratch ([12]; MCF7, 48 h, 2 μM): 66.1 (1.1) % | mean percentage of non-invaded portion of the scratch ([12]; MCF7, 48 h, 5 μM): 78.8 (0.6) % | mean percentage of non-invaded portion of the scratch ([13]; MDA-MB-231, 0 h, 1 μM): 100 (5.5) % | mean percentage of non-invaded portion of the scratch ([13]; MDA-MB-231, 0 h, 2 μM): 100 (7.4) % | mean percentage of non-invaded portion of the scratch ([13]; MDA-MB-231, 0 h, 5 μM): 100 (6.5) % | mean percentage of non-invaded portion of the scratch ([13]; MDA-MB-231, 24 h, 1 μM): 40.7 (8.9) % | mean percentage of non-invaded portion of the scratch ([13]; MDA-MB-231, 24 h, 2 μM): 42.7 (8.0) % | mean percentage of non-invaded portion of the scratch ([13]; MDA-MB-231, 24 h, 5 μM): 48.4 (8.9) % | mean percentage of non-invaded portion of the scratch ([13]; MDA-MB-231, 48 h, 1 μM, cells started to die at 48 hrs): 61.7 (6.7) % | mean percentage of non-invaded portion of the scratch ([13]; MDA-MB-231, 48 h, 2 μM, cells started to die at 48 hrs): 76.2 (13.3) % | mean percentage of non-invaded portion of the scratch ([13]; MDA-MB-231, 48 h, 5 μM, cells started to die at 48 hrs): 98.5 (9.1) %
